In patent publication US7541173B2, “Solvent tolerant microorganisms and methods of isolation” (E.I. du Pont de Nemours and Company, priority 2006, dated 2009):

How the values were obtained:
[1] = tested on: most microorganisms described in the art; settings: liquid medium at 37° C.; cited from earlier work
[2] = tested on: microbial consortium from wastewater sludge samples; settings: 1-butanol 1.6%, chemostat, 37° C.
[3] = tested on: butanol tolerant Lactobacillus strains; format: cell-based; settings: S20 agar or TSA agar, 37° C., 24 to 72 h
Procedure: The square-well microtiter plate was sealed with an adhesive cover (Beckman Coulter Inc.; Catalog No. 538619) and incubated at 37° C. with shaking for up to 72 h. The square-well microtiter plate was used to make a master plate by dispensing 200 μL of culture from each square well into a corresponding well in a “U-bottom” microtiter plate (VWR Scientific Products, West Chester, Pa.; Catalog No. 62409-052).

1-butanol
concentration at which growth is totally inhibited [1]: less than 2.0 % w/v | cell density after continued incubation ([2]; after adaptation): 2.3 OD600 | cell density after increasing 1-butanol in feed ([2]; initial decrease): less than 1.5 OD600 | 1-butanol concentration in agar medium on which isolates grew [3]: 3%
